# Measurements as given in paper PMC6332446, “Acylphloroglucinol Derivatives from the South African Helichrysum niveum and Their Biological Activities” (Molecules, 2015).
# Legend:
# [1] = ORAC assay, hydroxyl radical absorbance capacity (ORACOH); details: trolox equivalents; H2O2 0.3%, Cu2+ 18 μM, 37 °C; ± % STDEV
# Procedure: (§1) Automated Oxygen Radicals Absorbance Capacity (ORAC) Assay: ORAC was measured according to the method previously described. The method measures the antioxidant scavenging capacity for (a) peroxyl radicals generated by thermal decomposition of 2,2ʹ-azobis ([…]) dihydrochloride (AAPH; ORACROO assay); (b) hydroxyl radical (ORACOH assay), generated by H2O2-Cu^2+ (H2O2, 0.3%; Cu^2+ [as CuSO4], 18 μM, or (c) Cu^2+ [as CuSO4], 18 μM as a transition metal oxidant at 37 °C. ORAC values were expressed as micromoles of trolox equivalents (TE) per milligram of test sample, except when Cu^2+ (without H2O2) was used as an oxidant in the assay. In the presence of Cu^2+ without H2O2, test samples acted as prooxidants rather than antioxidants in the ORAC assay. The copper-initiated prooxidant activity was calculated using [(AreaBlank − AreaSample)/AreaBlank] × 100 and expressed as prooxidant units; one unit equals the prooxidant activity that reduces the area under the fluorescein decay curve by 1% in the ORAC assay.
# [2] = Copper-initiated prooxidant activity in the ORAC assay; details: Cu2+ 18 μM without H2O2, 37 °C; one unit = 1% reduction of area under fluorescein decay curve
# Procedure: as §1
# [3] = Trolox equivalent absorbance capacity (TEAC) assay; details: trolox equivalents; absorbance 734 nm, 25 °C
# Procedure: Trolox Equivalent Absorbance Capacity (TEAC) Assay: The total antioxidant capacity of the test samples in terms of TEAC were measured using a previously described method. Absorbance was read at 734 nm at 25 °C in a plate reader and the results were expressed as μM trolox equivalents per milligram dry weight (μM TE/g DW) of the test samples.
# [4] = Ferric-ion reducing antioxidant power (FRAP) assay; details: ascorbic acid equivalents; absorbance 593 nm; ± % STDEV
# Procedure: Ferric-Ion Reducing Antioxidant Power (FRAP) Assay: Working FRAP reagent was prepared in accordance to the method described previously. Absorbance was measured at 593 nm. L-ascorbic acid was used as a standard and the results were expressed as μM ascorbic acid equivalents per milligram dry weight (μM AAE/g DW) of the test samples.
# mushroom tyrosinase = test: Tyrosinase enzyme assay; type: biochemical; details: L-Tyrosine substrate; samples screened at 100.00 μg/mL upper limit
# Procedure: Tyrosinase Enzyme Assay: The tyrosinase inhibitory activity was measured using the spectrophotometric method previously described. Samples were dissolved in DMSO to a stock solution of 1 mg/mL, and further dilutions were then done with 50 mM sodium phosphate buffer (pH 6.5) for all working solutions. […] In the wells of a 96-well plate, 70 µL of each sample working solution was combined with 30 μL of tyrosinase (500 Units/mL in sodium phosphate buffer) in triplicate. After incubation at room temperature for 5 min, 110 μL of substrate (2 mM L-Tyrosine) was added to each well. Final concentrations of the crude extract, isolated compounds, and positive control ranged from 1.0–100 μg/mL. Incubation commenced for 30 min at room temperature and the enzyme activity was determined by measuring the absorbance at 490 nm. The percentage of tyrosinase inhibition was calculated as follows: Tyrosinase inhibition (%) = [(A − B) − (C − D)]/(A − B) × 100 (1) where A is the absorbance of the control with the enzyme, B is the absorbance of the control without the enzyme, C is the absorbance of the test sample with the enzyme and D is the absorbance of the test sample without the enzyme.
# [5] = biological target: T1, elastase from porcine pancrease (Sus scrofa, UniProt P00772); test: biochemical; details: SANA substrate; samples screened at 100.00 μg/mL upper limit; read-out: Inhibitory Activities IC50, Elastase (converted)
# T1 construct: from tissue; host or cells: porcine pancreas
# Procedure: Elastase Inhibition Assay: Inhibition of elastase by the test samples was assayed using N-succyl-(Ala)-3-nitroanilide (SANA) as the substrate, monitoring the release of p-nitroanilide by the method described previously. The inhibitory activity determined the intensity of color released during cleavage of SANA by the action of elastase. Briefly, 1 mM SANA was prepared in 0.1 M Tris-HCl buffer pH 8.0 and 200 μL of this solution was added to the 20 μL of sample solution in a 96-Well plate. The mixtures were vortexed and preincubated for 10 min at 25 °C and then 20 μL of elastase from porcine pancrease (0.03 Units/mL) was added. The mixtures were further incubated for 10 min and the absorbance was measured at 410 nm. Methanol was used as control, while oleanolic acid used as a positive control.
# [6] = biological target: Acetylcholinesterase (AChE) (Homo sapiens, UniProt P22303); test: biochemical; details: 500.00 μg/mL upper concentration limit; read-out: Inhibitory Activities IC50, Acetylcholinesterase (converted)
# Procedure: Acetylcholinesterase Inhibition Assay: Acetylcholinesterase (AChE) inhibitory activity was measured using Ellman’s method as previously described with minor modifications. AChE catalysis the hydrolysis of acetythiocholine iodide (ACTI as substrate) to thiocholine, which can then react with Ellman’s reagent (DTNB) to produce 5-thio-2-nitrobenzoate (yellow color). In the presence of samples (inhibitors), the release of 5-thio-2-nitrobenzoate (yellow color) is reduced and it is monitored by measuring the absorbance at 450 nm.
# In a 96-Well plate, the reaction mixture contains 50 µL of samples pre-incubated with 125 µL of 3 mM 5,5ʹ-Dithiobis-(2-nitrobenzoic acid), and 25 µL AChE (2.0 U/mL), in 50 mM tris-HCl buffer (pH 8.0), with 0.1% bovine serum albumin (BSA) for 15 minutes at 25 °C. Subsequently, 25 µL (15 mM) ACTI was added to the incubation mixture and further incubated for 10 min at 25 °C. […] Absorbance was recorded at 450 nm. The percent AChE inhibitory activity is given by: [A0 − (B − C)]/A0 × 100 (3) where A0 = full enzymatic reaction; B = Activity in the presence of sample; and C = Activity without sample.
# Rat liver microsomes = details: Fe2+-induced, TBARs, samples screened at 50.00 μg/mL, ± STDEV
# [7] = ORAC assay, peroxyl radical absorbance capacity (ORACROO); details: trolox equivalents; AAPH, 37 °C; ± % STDEV
# Procedure: as §1
# Chain of Acetylcholinesterase (AChE) (P22303 32-614, species assumed): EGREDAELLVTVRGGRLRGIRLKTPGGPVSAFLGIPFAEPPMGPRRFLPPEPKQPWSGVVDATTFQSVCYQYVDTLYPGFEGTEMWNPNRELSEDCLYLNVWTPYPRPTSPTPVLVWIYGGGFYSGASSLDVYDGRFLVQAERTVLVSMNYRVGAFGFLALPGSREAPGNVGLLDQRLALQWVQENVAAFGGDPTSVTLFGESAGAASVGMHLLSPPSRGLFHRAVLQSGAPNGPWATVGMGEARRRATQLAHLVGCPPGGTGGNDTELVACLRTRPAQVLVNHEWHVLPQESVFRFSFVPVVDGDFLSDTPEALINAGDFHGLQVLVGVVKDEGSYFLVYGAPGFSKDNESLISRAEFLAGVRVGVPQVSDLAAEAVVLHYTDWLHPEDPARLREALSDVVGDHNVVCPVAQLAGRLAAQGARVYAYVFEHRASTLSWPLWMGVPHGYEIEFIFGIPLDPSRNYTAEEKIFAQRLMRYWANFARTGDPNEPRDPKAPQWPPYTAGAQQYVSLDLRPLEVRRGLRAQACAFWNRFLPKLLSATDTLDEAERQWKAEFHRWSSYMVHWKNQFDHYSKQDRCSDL
# T1 sequence (P00772 27-266): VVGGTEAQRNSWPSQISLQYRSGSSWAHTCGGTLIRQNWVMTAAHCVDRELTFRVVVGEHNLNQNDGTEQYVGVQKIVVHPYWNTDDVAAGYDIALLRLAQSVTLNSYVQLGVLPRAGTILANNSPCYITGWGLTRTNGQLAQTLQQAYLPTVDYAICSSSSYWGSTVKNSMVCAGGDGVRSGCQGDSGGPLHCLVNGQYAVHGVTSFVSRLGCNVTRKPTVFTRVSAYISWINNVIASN
Structure (SMILES),Hydroxyl (ORACOH) [1],Prooxidant (copper-initiated prooxidant activity) [2] [prooxidant units],TEAC [3] [μM TE/g DW],FRAP [4] [µMAAE/g],"Inhibitory Activities IC50, Tyrosinase (mushroom tyrosinase) [µg/mL]",IC50 [5] [µM],IC50 [6] [µM],Anti-Lipid peroxidation IC50 (Rat liver microsomes) [µg/mL],Peroxyl (ORAC peroxyl radical absorbance capacity) [7] [µM TE/g]
"CC(=O)OC/C(C)=C/Cc1c(O)cc(O)c(C(=O)c2ccccc2)c1O [Compound 1, 1-benzoyl-3(3-methylbut-2-enylacetate)-phloroglucinol]",64.85 ± 10.95 × 10^6 µMTE/g,8.92 ± 1.15,19545.00 ± 10.25,2530.54 ± 0.92,35.63 ± 4.67,> 281,752,5.12 ± 0.90,–
"C=C(C)[C@@H](O)Cc1c(O)cc(O)c(C(=O)c2ccccc2)c1O [Compound 2, 1-benzoyl-3(2S-hydroxyl-3-methylbut-3-enyl)-phloroglucinol]",94.97 ± 5.88 × 10^6 µMTE/g,756.90 ± 1.98,43615.73 ± 6.66,4950.08 ± 0.65,26.72 ± 5.05,> 318,852,3.55 ± 1.92,–
"CC(C)C(=O)c1c(O)cc(O)c2c1OC(C)(C)[C@@H](O)C2 [Compound 3, 8-(2-methyl-1-propanone)-3S,5,7-trihydroxyl-2,2-dimethylchromane]",5.99 ± 4.52 × 10^6 µMTE/g,41.73 ± 8.20,6001.40 ± 5.63,155.65 ± 12.02,80.31 ± 3.31,90.3,974,>50.00,3937.78 ± 25.85
"CCC(C)C(=O)c1c(O)cc(OCC=C(C)C)cc1O (centres unmarked) [Compound 4, 1-(2-methylbutanone)-4-O-prenyl-phloroglucinol]",3.92 ± 14.47 × 10^6 µMTE/g,7.02 ± 4.02,1629.10 ± 2.03,194.27 ± 1.78,>100.00,164,981,44.62 ± 2.08,5406.65 ± 1.39
"CC(C)=CCOc1cc(O)c(C(=O)C(C)C)c(O)c1 [Compound 5, 1-(2-methylpropanone)-4-O-prennyl-phloroglucinol]",5.60 ± 0.79 × 10^6 µMTE/g,12.33 ± 6.62,2673.62 ± 1.68,446.64 ± 8.07,>100.00,263,957,20.22 ± 2.72,6053.87 ± 18.67
"CCCC(=O)c1c(O)cc(O)c(CC=C(C)C)c1O [Compound 6, 1-(butanone)-3-prenyl-phloroglucinol]",18.07± 3.47 × 10^6 µMTE/g,64.37 ± 0.22,4316.61 ± 1.06,1183.52 ± 6.20,>100.00,134,957,30.80 ± 2.12,13544.93 ± 12.13
"CCC(C)C(=O)c1c(O)cc(O)c(CC=C(C)C)c1O (centres unmarked) [Compound 7, 1-(2-methylbutanone)-3-prenyl-phloroglucinol]",23.12 ± 18.94 × 10^6 µMTE/g,73.87 ± 1.10,9998.71 ± 2.66,1029.03 ± 0.66,>100.00,240,936,27.49 ± 3.19,14139.74 ± 5.96
"CCCC(=O)c1c(O)cc(O)c(C/C=C(\C)COC(C)=O)c1O [Compound 8, 1-butanone-3-(3-methylbut-2-enylacetate)-phloroglucinol]",16.70 ± 1.25 × 10^6 µMTE/g,76.59 ± 0.27,6757.40 ± 4.69,1203.02 ± 2.07,>100.00,197,769,27.56 ± 0.63,14218.17 ± 12.36
"CC(C)=CCc1c(O)cc(O)c(C(=O)C(C)C)c1O [Compound 9, 1-(2-methylpropanone)-3-prenylphloroglucinol]",24.24 ± 1.71 × 10^6 µMTE/g,69.54 ± 0.29,4423.32 ± 3.11,1096.01 ± 1.12,>100.00,233,–,20.95 ± 2.62,13639.27 ± 17.62
"CC(=O)OC/C(C)=C/Cc1c(O)cc(O)c(C(=O)C(C)C)c1O [Compound 10, caespitate]",16.26 ± 15.39 × 10^6 µMTE/g,92.31 ± 1.59,8705.14 ± 1.83,1019.28 ± 1.79,>100.00,182,777,20.50 ± 4.01,16735.55 ± 21.72
"O=C(O[C@@H]1Cc2c(O)cc(O)cc2O[C@@H]1c1cc(O)c(O)c(O)c1)c1cc(O)c(O)c(O)c1 [EGCG, epigallocatechin gallate, reference compound]",3.91 ± 4.65 × 10^6 µMTE/g,6.48 ± 1.19,11545.44 ± 17.28,3326.45 ± 5.76,–,–,–,1.04 ± 1.02,–
